This passage reports melting point results from a melting point compilation (Tetko et al.; mined from patent text by program, amines drawn as free bases though some values may be those of a salt).

The term melting point denotes the temperature, or range, at which the solid turns liquid.

`COc1cccc(OC)c1-c1cc(C(=O)NC2(C(=O)O)C3CC4CC(C3)CC2C4)nn1-c1ccc(C#N)c2ccccc12` (configuration not stated) registered a melting point of 290 °C.
With `O=C(O)c1ccc(OCCc2c(CCNS(=O)(=O)Cc3ccc(Cl)c(Cl)c3)n(C(c3ccccc3)c3ccccc3)c3ccc(Cl)cc23)cc1F` the figure was 117 to 119 °C; with `O=C1CCC(=O)N1CCS`, 45 °C; with `CCC[C@H]1CC[C@H]([C@H]2CC[C@H](c3ccc(C#N)cc3)CC2)CC1`, 55 °C.
With `COc1cc(NC(C)=O)c2c3c(c4ccccc4nc13)C=CN2` the figure was 128 to 132 °C.
In turn, `O=CC1(Nc2ccccc2)CCN(CCc2ccccc2)CC1` gave a melting point of 83 to 84 °C.
With `Fc1ccc2[nH]cc(CCc3ccncc3)c2c1` the figure was 128 °C; with `CCN(CC)C(=O)c1ccccc1-c1ccc(OC)cc1`, 46 to 47 °C.
The result for `COC1=CC(=O)C2=C(C1=O)C1CCC2C1` (configuration not stated) reads 106 to 108 °C; that for `O=C(Nc1cccc(C(F)(F)F)c1)c1cccnc1NCc1ccncc1`, 152 to 153 °C; that for `CC(N)=CC(=O)C1CNC(C)S1(=O)=O` (configuration not stated), 113 to 115 °C.
The result for `CC(C)Nc1cccnc1N1CCN(C(=O)c2ccc(C(=O)N3CCN(C)CC3)cc2)CC1` reads 158 to 160 °C; that for `O=C(Nc1nccs1)C(CC1CCCC1)c1ccc(-c2cccnc2)cc1` (configuration not stated), 48 to 52 °C.
As to `COc1ccc(CN(C)CCCOc2ccc(NC(=O)c3cccc4c(=O)c5cccc(C)c5[nH]c34)c(C)c2)cc1OC`, the melting point turned out to be 146 °C.
The result for `CC(C)c1ccc(C(=O)Nc2cn3cc(-n4ccnc4)ccc3n2)cc1` reads 291 to 293 °C; that for `OCCNc1cc(Nc2ccc(Oc3ccccc3)cc2)ncn1`, 154 to 156 °C.
With `O=C(Nc1n[nH]c(=S)s1)NC(Cc1ccccc1)C(=O)NCc1ccccn1` (configuration not stated), the melting point was in the range of 159 to 161 °C.
In turn, `Nc1nc(NCCO)nc(N2CCOCC2)n1` displayed a melting point of 159 to 161 °C.
With `Cn1ccnc1Sc1ccc(Nc2c(C#N)cnc3cc(/C=C/CCO)ccc23)cc1Cl` the figure was 205 to 210 °C; with `Cc1ccc(C)c(C(=O)NCC23CC4CC(CC(Cl)(C4)C2)C3)c1`, 155 °C; with `CC(C)(C)C(=O)Nc1ccc(Cl)cn1`, 51.4 to 53.4 °C.
The compound `Fc1ccc2c(CN3CCN(c4ccc(Cl)cc4)CC3)n[nH]c2c1F` showed a melting point of 167 to 168 °C.
As for `CC1(c2cccc(S(N)(=O)=O)c2)OCCO1`, the melting point lay in the range of 155 to 157 °C.
With `CC(=C1SC(=O)NC1=O)c1ccc(OCCCOc2c(-c3ccc(F)cc3)n(C)c3ccccc3c2=O)cc1` the figure was 262 to 264 °C.
The result for `COC(=O)c1cc(CBr)cc(C2(C#N)CC2)c1` reads 78.3 to 79.8 °C; that for `O=C(O)c1ccc(Cc2nc3ccccc3[nH]2)cc1`, 265 to 267 °C.
Consider `CN(C(=O)c1ccc(Cn2cnc3ncnc-3c2)cc1)C1CCCCC1`, for which the melting point lay within 229 to 230 °C.
With `COc1ccc(CN(C)CCCc2ccc(NC(=O)c3cccc4c(=O)c5ccccc5[nH]c34)cc2)cc1` the figure was 155 °C; with `O=C(O)COc1ccc(C(=CC(=O)NCc2cccnc2)c2ccccc2)cc1`, 187 to 189 °C; with `COc1ccc(-c2ccc(Br)c3ccsc23)cc1`, 103 to 104 °C.
With `CC1(C)OC(=O)Nc2ccc(-c3cc(C#N)cc(OC(F)(F)F)c3)cc21` the figure was 227 to 228 °C; with `CN(C)C=Nc1ccc(-c2c[nH]cn2)cc1`, 141 to 142 °C; with `CC(C)(C)C(NC(=O)c1ccc(Cl)cc1)NC(=NC#N)Nc1cccc(C(F)(F)F)c1` (configuration not stated), 184 to 186 °C.
With `Cc1ccc(C(N)=S)nc1` the figure was 172 to 173 °C.
Turning to `Cc1cc2c3c(cc(C)c2[nH]c1=O)CC(C)(CN=[N+]=[N-])O3` (configuration not stated), the melting point was 232 to 234 °C.
The compound `COc1cccc(-c2c3c(cc4ccc(O)cc24)-c2ccc(O)cc2CO3)c1` yielded a melting point of 220 to 223 °C.
In the case of `O=c1ccn(C2C=CC(CO)O2)c(=O)[nH]1` (configuration not stated), the melting point lay within 150 to 151 °C.
The result for `CCCCCCCCCCCCCCOC(=O)c1ccc(Cl)c(NC(=O)C(C(=O)c2ccccc2)N2C(=O)c3ccccc3C2=O)c1` (configuration not stated) reads 81 to 82 °C; that for `O=c1[nH]cnc2c1nc(CC1CCN(Cc3ccccc3)CC1)n2Cc1ccc(F)cc1`, 197 °C.
The result for `O=C(Cc1cc(C(F)(F)F)cc(C(F)(F)F)c1)N1CCN(C(=O)CNC2CCN(Cc3ccccc3)CC2)C(c2ccccc2)C1` (configuration not stated) reads 49 to 52 °C; that for `CCCCCCCCCCCCC(C(=O)O)S(=O)(=O)c1ccc(OC)cc1` (configuration not stated), 82 °C.
The result for `CCCCN1C(=O)CC(=O)N(c2ccccc2)c2cc(Cl)ccc21` reads 159 to 161 °C.
On to `O=C(c1ccc(Cl)cc1)c1c(N2C(=O)c3ccccc3C2=O)sc(Br)c1CN(C1CCCCC1)C1CCCCC1`, for which the melting point lay within 173 to 175 °C.
With `COc1ccc2c(=O)c(-c3ccc(OCC(O)CN4CCOCC4)cc3)coc2c1` (configuration not stated) the figure was 117 to 118 °C.
In turn, `COc1ccc(C(OC(C)=O)C(COC(C)=O)[N+](=O)[O-])cc1OC` (configuration not stated) returned a melting point of 85 to 88 °C.
With `COC(C)Cc1ccc(OCCNc2ncnc3ccccc23)c(C)c1` (configuration not stated) the figure was 95 to 97 °C.
With `SCCNc1nc(-c2ccccc2)c2cc(Cl)ccc2n1` the figure was 166 °C; with `O=c1oc(-c2ccc(C(F)(F)F)cc2)nc2cc(F)ccc12`, 137 to 139 °C; with `c1ccc(-c2ccc(-n3c4ccccc4c4c3ccc3c5ccccc5n(-c5ccc(-c6ccccc6)cc5)c34)cc2)cc1`, 315 °C.
With `CSc1nc(N)nc(-c2ccc([N+](=O)[O-])o2)n1` the figure was 179 to 181 °C.
Take `Nc1ncc(CN2CCN(c3ccccc3)CC2)c(N)n1`: the melting point fell in the range of 263 to 265 °C.
With `Cc1cn2c(N)c(Cl)cc(C(=O)NCC3CCN(C(C)C(=O)C(C)(C)C)CC3)c2n1` (configuration not stated) the figure was 207 °C; with `COC(=O)c1cccc(-c2nnc(-c3ccc(C(C)C)cc3)o2)c1`, 74 to 77 °C.
With `COc1cccc(OC)c1C(=O)P(=S)(CC(C)C)C(=O)c1c(OC)cccc1OC` the figure was 145 to 147 °C; with `CCOC(=O)/C=C/[C@H]1O[C@@H](n2cc(CC)c(=O)[nH]c2=O)C[C@@H]1OC(C)=O`, 132 to 133 °C.
The result for `Nc1nc2c(ncn2[C@@H]2CO[C@H](CO)C2)c(=O)[nH]1` reads 261 to 263 °C; that for `NC(=O)Cc1csc(-c2cccc(Br)c2)n1`, 150 to 152 °C.
In turn, `Cc1cc2c3c(c1)C(c1ccccc1)C(=O)N3CC(=O)N2` (configuration not stated) registered a melting point of 195 to 200 °C.
With `O=S(=O)(Nc1ccc(Oc2cccc3cccnc23)cc1)c1ccc(Cl)cc1` the figure was 220 °C; with `Nc1ccc(Oc2ccc3sncc3c2)cc1`, 100 °C; with `Cn1ccnc1S(=O)CC(=O)C12CC3CC(CC(C3)C1)C2` (configuration not stated), 86 to 89 °C.
With `O=C(N[C@H]1CC[C@H](CCN2CCN(c3nccc4c3OCC4)CC2)CC1)c1cnc(N2CCOCC2)cn1` the figure was 200 °C.
